Data taken from patent US11702404B2, “GLP-1R modulating compounds” (priority 2019, dated 2023).
Like-named read-outs stand apart in the source and are kept apart here.

Assays:
GLP-1R = GLP-1R (Homo sapiens, UniProt P43220); experiment: GLP-1R activation: cAMP increase in CHO cells stably expressing GLP-1R; assay type: cell-based
[1] = Microsomal stability, human liver microsomes (predicted hepatic clearance); conditions: predicted from in vitro microsomal stability data
[2] = cAMP increase, CHO cells stably expressing GLP-1R, 10 point dose response, 30 minutes incubation, read-out: EC50

Sequence of GLP-1R (P43220 24-463): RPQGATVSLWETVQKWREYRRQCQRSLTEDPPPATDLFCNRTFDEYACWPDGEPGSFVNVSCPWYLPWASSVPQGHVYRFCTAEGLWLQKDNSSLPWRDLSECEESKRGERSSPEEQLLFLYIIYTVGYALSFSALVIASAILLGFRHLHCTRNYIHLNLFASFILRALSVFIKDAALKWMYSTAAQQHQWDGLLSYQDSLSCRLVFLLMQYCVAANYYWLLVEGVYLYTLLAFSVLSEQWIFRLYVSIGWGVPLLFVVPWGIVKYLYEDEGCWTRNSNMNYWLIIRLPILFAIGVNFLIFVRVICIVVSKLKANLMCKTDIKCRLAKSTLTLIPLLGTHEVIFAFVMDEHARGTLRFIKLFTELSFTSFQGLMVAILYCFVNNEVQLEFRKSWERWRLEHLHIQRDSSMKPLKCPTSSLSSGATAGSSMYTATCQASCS

SMILES | EC50 (GLP-1R; [2]) [nM] | Predicted Hepatic Clearance (Pred. Cl.) [1] [mL/min/kg] | EC50 (GLP-1R; EC50 (nM)) [nM] | EC50 (GLP-1R; read-out: EC50) [nM]
N#Cc1ccc(COc2cccc(-c3ccc(Cc4nc5ccc(C(=O)O)cc5n4Cc4cncnc4)c(F)c3)n2)c(F)c1 [Example 532, 2-(4-(6-((4-cyano-2-fluorobenzyl)oxy)pyridin-2-yl)-2-fluorobenzyl)-1-(pyrimidin-5-ylmethyl)-1H-benzo[d]imidazole-6-carboxylic acid] | 58.6 | <1.83 |  | 
CCn1nccc1Cn1c(Cc2ccc(-c3cccc(OCc4ccc(C#N)cc4F)n3)c(F)c2)nc2ccc(C(=O)O)cc21 [Example 533, 2-(4-(6-((4-cyano-2-fluorobenzyl)oxy)pyridin-2-yl)-3-fluorobenzyl)-1-((1-ethyl-1H-pyrazol-5-yl)methyl)-1H-benzo[d]imidazole-6-carboxylic acid] | 47.1 | 10 |  | 
CCc1cnccc1Cn1c(Cc2ccc(-c3cccc(OCc4ccc(C#N)cc4F)n3)c(F)c2)nc2ccc(C(=O)O)cc21 [Example 534, 2-(4-(6-((4-cyano-2-fluorobenzyl)oxy)pyridin-2-yl)-3-fluorobenzyl)-1-((3-ethylpyridin-4-yl)methyl)-1H-benzo[d]imidazole-6-carboxylic acid] | 49.9 | 15.2 |  | 
O=C(O)c1ccc2nc(Cc3ccc(-c4cccc(OCc5ccc(Cl)cc5F)n4)c(F)c3)n(CC3(CF)CC3)c2c1 [Example 535, 2-(4-(6-((4-chloro-2-fluorobenzyl)oxy)pyridin-2-yl)-3-fluorobenzyl)-1-((1-(fluoromethyl)cyclopropyl)methyl)-1H-benzo[d]imidazole-6-carboxylic acid] | 0.66 | 4.17 |  | 
N#Cc1ccc(COc2cccc(-c3cc(F)c(Cc4nc5ccc(C(=O)O)cc5n4C[C@@H]4CCO4)cc3F)n2)cc1 [Example 536, (S)-2-(4-(6-((4-cyanobenzyl)oxy)pyridin-2-yl)-2,5-difluorobenzyl)-1-(oxetan-2-ylmethyl)-1H-benzo[d]imidazole-6-carboxylic acid] | 0.04 | 2.42 |  | 
COCCn1c(Cc2c(F)cc(-c3cccc(OCc4ccc(C#N)cc4F)n3)cc2C#N)nc2ccc(C(=O)O)cc21 [Example 537, 2-(2-cyano-4-(6-((4-cyano-2-fluorobenzyl)oxy)pyridin-2-yl)-6-fluorobenzyl)-1-(2-methoxyethyl)-1H-benzo[d]imidazole-6-carboxylic acid] |  | 3.3 | 6.89 | 
CC(=O)N1CC(F)(F)C[C@@H]1Cn1c(Cc2cc(F)c(-c3cccc(OCc4ccc(C#N)cc4F)n3)cc2F)nc2ccc(C(=O)O)cc21 [Example 539, (R)-1-((1-acetyl-4,4-difluoropyrrolidin-2-yl)methyl)-2-(4-(6-((4-cyano-2-fluorobenzyl)oxy)pyridin-2-yl)-2,5-difluorobenzyl)-1H-benzo[d]imidazole-6-carboxylic acid] |  | 6.33 |  | 0.7
N#Cc1ccc(COc2cccc(-c3cc(=O)n(Cc4nc5ccc(C(=O)O)cc5n4C[C@@H]4CCO4)cc3F)n2)c(F)c1 [Example 540, (S)-2-((6-((4-cyano-2-fluorobenzyl)oxy)-5′-fluoro-2′-oxo-[2,4′-bipyridin]-1′(2′H)-yl)methyl)-1-(oxetan-2-ylmethyl)-1H-benzo[d]imidazole-6-carboxylic acid] | 0.12 | 3.33 |  | 
COCCn1c(Cc2cc(F)c(-c3ccc(OC)c(OCc4ccc(C#N)cc4F)n3)cc2F)nc2ccc(C(=O)O)cc21 [Example 541, 2-(4-(6-((4-cyano-2-fluorobenzyl)oxy)-5-methoxypyridin-2-yl)-2,5-difluorobenzyl)-1-(2-methoxyethyl)-1H-benzo[d]imidazole-6-carboxylic acid] | 28.3 | 3.67 |  | 
